In PubChem BioAssay AID1259407 (Chemical Carcinogenesis Research Information System (CCRIS), 2018):
The source made the active and inactive calls. No rule for the calls is given here.

Test system: CCRIS mutagenicity, Ames/micronucleus/aberration tests
Assay: CCRIS mutagenicity studies

SMILES: Nc1cccc(N)c1
- mutagenic call (Test System: AMES SALMONELLA TYPHIMURIUM, Strain/Indicator: TA100, Metabolic Activation: S-9, Method: PREINCUBATION): active; positive
- mutagenic call (Test System: AMES SALMONELLA TYPHIMURIUM, Strain/Indicator: TA1535, Metabolic Activation: HAMSTER, LIVER, S-9, AROCLOR 1254 (10%), Method: PREINCUBATION): inactive; negative
- mutagenic call (Test System: AMES SALMONELLA TYPHIMURIUM, Strain/Indicator: TA1535, Metabolic Activation: HAMSTER, LIVER, S-9, AROCLOR 1254 (30%), Method: PREINCUBATION): active; positive
- mutagenic call (Test System: AMES SALMONELLA TYPHIMURIUM, Strain/Indicator: TA1535, Metabolic Activation: NONE, Method: PREINCUBATION): inactive; negative
- mutagenic call (Test System: AMES SALMONELLA TYPHIMURIUM, Strain/Indicator: TA1535, Metabolic Activation: RAT, LIVER, S-9, AROCLOR 1254 (5%), Method: PREINCUBATION): active; positive
- mutagenic call (Test System: AMES SALMONELLA TYPHIMURIUM, Strain/Indicator: TA1535, Metabolic Activation: RAT, LIVER, S-9, AROCLOR 1254 (30%), Method: PREINCUBATION): inactive; negative
- mutagenic call (Test System: AMES SALMONELLA TYPHIMURIUM, Strain/Indicator: TA1537, Metabolic Activation: RAT, LIVER, S-9, AROCLOR 1254 (4 OR 10%), Method: STANDARD PLATE): active; positive
- mutagenic call (Test System: AMES SALMONELLA TYPHIMURIUM, Strain/Indicator: TA1538, Metabolic Activation: RAT, LIVER, S-9, AROCLOR 1254 (4 OR 10%), Method: STANDARD PLATE): active; positive
- mutagenic call (Test System: AMES SALMONELLA TYPHIMURIUM, Strain/Indicator: TA1538, Metabolic Activation: RAT, LIVER, S-9, PHENOBARBITAL, Method: STANDARD PLATE): active; positive
- mutagenic call (Test System: AMES SALMONELLA TYPHIMURIUM, Strain/Indicator: YG1021, Metabolic Activation: RAT, LIVER, S-9, PHENOBARBITAL AND 5,6-BENZOFLAVONE, Method: PREINCUBATION): active; positive
- mutagenic call (Test System: AMES SALMONELLA TYPHIMURIUM, Strain/Indicator: YG1024, Metabolic Activation: CELL-FREE PLANT MIXTURE TX1MX, Method: PREINCUBATION): active; positive
- mutagenic call (Test System: AMES SALMONELLA TYPHIMURIUM, Strain/Indicator: YG1024, Metabolic Activation: NONE, Method: PREINCUBATION): inactive; negative
- mutagenic call (Test System: AMES SALMONELLA TYPHIMURIUM, Strain/Indicator: YG1024, Metabolic Activation: NONE, Method: STANDARD PLATE): inactive; negative
- mutagenic call (Test System: AMES SALMONELLA TYPHIMURIUM, Strain/Indicator: YG1024, Metabolic Activation: PLANT (PERSEA AMERICANA) S-117, Method: STANDARD PLATE): active; positive
- mutagenic call (Test System: AMES SALMONELLA TYPHIMURIUM, Strain/Indicator: YG1024, Metabolic Activation: PLANT (ZEA MAYS) S-9, Method: STANDARD PLATE): active; positive
- mutagenic call (Test System: AMES SALMONELLA TYPHIMURIUM, Strain/Indicator: YG1024, Metabolic Activation: RAT LIVER S-9, AROCLOR 1254, Method: STANDARD PLATE): active; positive
- mutagenic call (Test System: AMES SALMONELLA TYPHIMURIUM, Strain/Indicator: YG1024, Metabolic Activation: RAT LIVER S-9, Method: STANDARD PLATE): active; positive
- mutagenic call (Test System: AMES SALMONELLA TYPHIMURIUM, Strain/Indicator: YG1024, Metabolic Activation: RAT, LIVER, S-9, PHENOBARBITAL AND 5,6-BENZOFLAVONE, Method: PREINCUBATION): active; positive
- mutagenic call (Test System: AMES SALMONELLA TYPHIMURIUM, Strain/Indicator: YG1024, Metabolic Activation: TOBACCO, TX1 CELLS, Method: PREINCUBATION): active; positive
- mutagenic call (Test System: AMES SALMONELLA TYPHIMURIUM, Strain/Indicator: YG1029, Metabolic Activation: NONE, Method: STANDARD PLATE): inactive; negative
- mutagenic call (Test System: AMES SALMONELLA TYPHIMURIUM, Strain/Indicator: YG1029, Metabolic Activation: PLANT (PERSEA AMERICANA) S-117, Method: STANDARD PLATE): inactive; negative
- mutagenic call (Test System: AMES SALMONELLA TYPHIMURIUM, Strain/Indicator: YG1041, Metabolic Activation: RAT, LIVER, S-9, PHENOBARBITAL AND 5,6-BENZOFLAVONE, Method: PREINCUBATION): active; positive
- mutagenic call (Test System: Ames Salmonella typhimurium, Strain/Indicator: TA98, Metabolic Activation: None, Method: Preincubation): inactive; negative
- mutagenic call (Test System: Ames Salmonella typhimurium, Strain/Indicator: TA98, Metabolic Activation: Rat, Liver, S9, Sodium phenobarbital and 5,6-benzoflavone (10%), Method: Preincubation): active; positive
- mutagenic call (Test System: Ames Salmonella typhimurium, Strain/Indicator: TA100, Metabolic Activation: None, Method: Preincubation): inactive; negative
- mutagenic call (Test System: Ames Salmonella typhimurium, Strain/Indicator: TA100, Metabolic Activation: Rat, Liver, S9, Sodium phenobarbital and 5,6-benzoflavone (10%), Method: Preincubation): inactive; negative
- mutagenic call (Test System: Ames Salmonella typhimurium, Strain/Indicator: TA100, Metabolic Activation: Rat, Liver, S9, Sodium phenobarbital and 5,6-benzoflavone, Method: Preincubation): inactive; positive (repeat assay negative)
- mutagenic call (Test System: Ames Salmonella typhimurium, Strain/Indicator: TA1535, Metabolic Activation: None, Method: Preincubation): inactive; negative
- mutagenic call (Test System: Ames Salmonella typhimurium, Strain/Indicator: TA1535, Metabolic Activation: Rat, Liver, S9, Sodium phenobarbital and 5,6-benzoflavone (10%), Method: Preincubation): inactive; negative
- mutagenic call (Test System: Ames Salmonella typhimurium, Strain/Indicator: TA1537, Metabolic Activation: None, Method: Preincubation): inactive; negative
- mutagenic call (Test System: Ames Salmonella typhimurium, Strain/Indicator: TA1537, Metabolic Activation: Rat, Liver, S9, Sodium phenobarbital and 5,6-benzoflavone (10%), Method: Preincubation): active; positive
- mutagenic call (Test System: E. coli, Strain/Indicator: WP2uvrA/pKM101, Metabolic Activation: None, Method: Preincubation): inactive; negative
- mutagenic call (Test System: E. coli, Strain/Indicator: WP2uvrA/pKM101, Metabolic Activation: Rat, Liver, S9, Sodium phenobarbital and 5,6-benzoflavone (10%), Method: Preincubation): inactive; negative
- mutagenic call (Test System: UDS RODENT HEPATOCYTES, Strain/Indicator: THY INCORP (NON-S-PHASE), Metabolic Activation: NONE, Method: AUTORADIOGRAPHY): inactive; negative
